The target in one experiment is METTL3/METTL14 (Homo sapiens, UniProt Q86U44). The experiment is described as follows: METTL3-14 standard enzyme assay (3H-SAM flashplate). To be noted: Table 4; METTL3 biochemical assay. The gist of the method:
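METTL3/METTL14 (2.5 nM) preincubated 5 min, then reacted with 3′-biotinylated RNA UCUGGACUAAA (100 nM) and 3H-SAM (100 nM) for 30 min at ambient temperature in 20 mM HEPES pH 7.5, 50 mM KCl, 250 μM MgCl2, 1 mM DTT. Quenched with 15 μM cold SAM; product captured on streptavidin flashplates, scintillation counted.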

The next experiment deals with PRMT5-MEP50 (Homo sapiens, UniProt O14744). In words: PRMT5 assay (3H-SAM flashplate). To be noted: Table 4; PRMT5 biochemical assay. The gist of the method:
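PRMT5-MEP50 at 2.5 nM, preincubated 5 min with compound in 20 mM Tris-HCl pH 8.0, 1 mM DTT, 0.01% Tween at ambient temperature. Biotinylated acetylated histone H4 peptide (100 nM) and 3H-SAM (250 nM) react 60 min, quenched with 15 μM cold SAM; methylation captured on streptavidin flashplates and scintillation-counted.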

The target of experiment [1] is T1, FLT3 (Homo sapiens, UniProt P36888).
T1 sequence (P36888 27-993): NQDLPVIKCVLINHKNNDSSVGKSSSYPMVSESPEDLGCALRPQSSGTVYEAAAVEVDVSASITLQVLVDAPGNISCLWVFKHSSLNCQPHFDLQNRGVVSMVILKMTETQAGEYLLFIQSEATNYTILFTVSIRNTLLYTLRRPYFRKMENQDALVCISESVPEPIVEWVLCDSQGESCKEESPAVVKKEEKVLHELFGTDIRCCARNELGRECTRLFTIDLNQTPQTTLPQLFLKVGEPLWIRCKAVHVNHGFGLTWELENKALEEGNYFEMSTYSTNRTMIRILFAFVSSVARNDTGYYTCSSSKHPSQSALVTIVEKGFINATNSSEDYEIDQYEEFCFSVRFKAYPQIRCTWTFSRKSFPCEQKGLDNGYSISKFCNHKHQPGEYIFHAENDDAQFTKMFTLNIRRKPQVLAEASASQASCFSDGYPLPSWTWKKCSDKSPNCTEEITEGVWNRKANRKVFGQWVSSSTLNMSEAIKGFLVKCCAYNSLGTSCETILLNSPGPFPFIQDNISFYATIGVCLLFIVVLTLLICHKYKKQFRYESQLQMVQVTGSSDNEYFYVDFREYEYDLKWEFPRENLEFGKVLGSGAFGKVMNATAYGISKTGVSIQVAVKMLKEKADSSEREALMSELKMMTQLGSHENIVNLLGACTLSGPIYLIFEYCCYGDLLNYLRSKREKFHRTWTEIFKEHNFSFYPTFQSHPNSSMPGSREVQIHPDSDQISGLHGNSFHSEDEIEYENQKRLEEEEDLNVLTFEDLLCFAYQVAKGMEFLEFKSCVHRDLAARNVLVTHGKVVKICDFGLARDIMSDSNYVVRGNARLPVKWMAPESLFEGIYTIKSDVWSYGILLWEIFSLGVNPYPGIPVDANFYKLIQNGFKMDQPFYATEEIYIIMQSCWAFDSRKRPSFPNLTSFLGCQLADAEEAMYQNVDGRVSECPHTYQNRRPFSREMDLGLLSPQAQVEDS
In words: FLT3 LanthaScreen assay. Type of experiment: biochemical. To be noted: Table 4. How it is done: (§1) FLT3/FLT3-ITD LanthaScreen Assays
(§2) Assays were performed in a 10 μl-volume in 384-well polypropylene microplates (Perkin Elmer Proxiplate, cat. No. 6059480) at ambient temperature. Optimized 1× assay buffer was 50 mM Hepes pH 7.5, 2 mM DTT, 0.01% Tween, 0.01% BSA, 10 mM MgCl2. For compound screening FLT3 (final concentration, f.c.=[…]) or FLT3-ITD (f.c.=[…]) was added using a Multidrop Combi (ThermoFisher Scientific, Waltham, MA) and preincubated for 10 min. Reactions were started by adding fluorescein-poly GT (f.c.=200 nM) and ATP (f.c.=57 μM) substrates. Reactions proceeded for 40 minutes. The reactions were stopped with a detection mixture of EDTA (f.c.=20 mM) and terbium-conjugated anti-phoso tyrosine antibody pY20 (f.c.=2 nM). The plates were sealed and read on an Envision (PerkinElmer, Waltham, MA) using 340 nm excitation and emission reads at 495 and 520 nM.
For orientation: Time-resolved FRET reads energy transfer from a long-lived donor to a nearby acceptor.

In experiment [2] the target is T2, FLT3-ITD (Homo sapiens, UniProt P36888).
T2 sequence (P36888 1-993): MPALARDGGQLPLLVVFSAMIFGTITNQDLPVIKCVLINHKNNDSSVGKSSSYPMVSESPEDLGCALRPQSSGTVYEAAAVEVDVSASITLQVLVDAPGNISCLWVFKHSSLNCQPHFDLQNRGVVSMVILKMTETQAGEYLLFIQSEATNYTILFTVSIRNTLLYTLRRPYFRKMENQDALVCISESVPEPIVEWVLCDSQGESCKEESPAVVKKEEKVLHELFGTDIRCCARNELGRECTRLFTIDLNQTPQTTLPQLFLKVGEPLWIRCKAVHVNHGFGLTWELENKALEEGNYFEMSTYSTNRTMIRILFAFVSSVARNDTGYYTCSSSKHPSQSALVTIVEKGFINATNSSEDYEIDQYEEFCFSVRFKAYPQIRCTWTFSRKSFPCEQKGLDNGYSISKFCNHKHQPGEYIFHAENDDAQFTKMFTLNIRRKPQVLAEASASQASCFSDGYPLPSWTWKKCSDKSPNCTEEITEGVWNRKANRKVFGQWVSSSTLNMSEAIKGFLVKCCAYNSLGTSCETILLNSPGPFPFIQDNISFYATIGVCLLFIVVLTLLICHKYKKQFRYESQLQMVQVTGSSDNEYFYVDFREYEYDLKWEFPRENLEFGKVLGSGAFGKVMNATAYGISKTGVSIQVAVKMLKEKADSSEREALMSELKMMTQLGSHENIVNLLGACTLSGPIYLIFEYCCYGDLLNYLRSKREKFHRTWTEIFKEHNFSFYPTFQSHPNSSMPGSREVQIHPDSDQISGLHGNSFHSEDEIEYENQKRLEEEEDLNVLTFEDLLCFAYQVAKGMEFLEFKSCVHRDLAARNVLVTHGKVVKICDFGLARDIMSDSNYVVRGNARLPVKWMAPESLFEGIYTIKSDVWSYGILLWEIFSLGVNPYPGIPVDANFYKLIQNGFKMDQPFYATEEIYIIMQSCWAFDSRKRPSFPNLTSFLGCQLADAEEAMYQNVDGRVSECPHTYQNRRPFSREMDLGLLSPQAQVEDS
In words: FLT3-ITD LanthaScreen assay. Type of experiment: biochemical. To be noted: Table 4. How it is done: as §1, §2

Experiment [3] has as its target T1, FLT3. In words: FLT3 Caliper assay. Type of experiment: biochemical. To be noted: Table 4; read-out: FLT3 Calipher assay IC50. How it is done:
(§3) FLT3/FLT3-ITD Caliper Assays
(§4) Assays were performed in a 20 μl-volume in 384-well polypropylene microplates (Perkin Elmer Proxiplate, cat. No. 6059480) at ambient temperature. Optimized 1× assay buffer was 50 mM Hepes pH 7.5, 2 mM DTT, 0.01% Tween, 0.01% BSA, 10 mM MgCl2. For compound screening FLT3 (final concentration, f.c.=0.9 nM) or FLT3-ITD (f.c.=7 nM) was added using a Multidrop Combi (ThermoFisher Scientific, Waltham, MA) and preincubated for 10 min. Reactions were started by adding fluorescein-peptide (sequence 5-FAM-EAIYAAPFAKKK-CONH2) (f.c.=300 μM) and ATP (FLT3 f.c.=97 μM FLT3-ITD f.c.=146 μM) substrates. Reactions proceeded for 60 minutes. The reactions were stopped with LabChip ProfilerPro Separation Buffer containing EDTA (f.c.=20 mM). The plates were read on a Caliper microfluidics reader (PerkinElmer, Waltham, MA).

In experiment [4] the target is T2, FLT3-ITD. In words: FLT3-ITD Caliper assay. Type of experiment: biochemical. To be noted: Table 4; read-out: FLT3-ITD Calipher assay IC50. How it is done: as §3, §4

pIC50: −log10 of the molar value. Some results are limits rather than exact numbers.

Sequence of PRMT5-MEP50 (O14744 whole entry): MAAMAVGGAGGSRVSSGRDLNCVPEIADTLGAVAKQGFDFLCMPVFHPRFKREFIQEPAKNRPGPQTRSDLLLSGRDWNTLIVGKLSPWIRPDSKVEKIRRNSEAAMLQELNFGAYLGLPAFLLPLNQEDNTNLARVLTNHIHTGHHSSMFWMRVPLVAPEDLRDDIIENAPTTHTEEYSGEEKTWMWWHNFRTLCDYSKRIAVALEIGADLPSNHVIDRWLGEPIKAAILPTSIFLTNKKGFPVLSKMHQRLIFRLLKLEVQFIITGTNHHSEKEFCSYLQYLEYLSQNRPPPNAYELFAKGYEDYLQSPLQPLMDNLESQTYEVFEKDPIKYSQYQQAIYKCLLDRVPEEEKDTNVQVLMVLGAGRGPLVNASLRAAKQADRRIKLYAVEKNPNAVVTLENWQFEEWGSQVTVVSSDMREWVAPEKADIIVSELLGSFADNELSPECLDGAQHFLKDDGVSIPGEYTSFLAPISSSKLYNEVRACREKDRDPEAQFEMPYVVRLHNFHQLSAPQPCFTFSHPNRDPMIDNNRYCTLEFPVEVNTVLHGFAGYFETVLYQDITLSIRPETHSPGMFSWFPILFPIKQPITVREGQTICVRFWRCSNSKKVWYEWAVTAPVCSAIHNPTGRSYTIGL
Sequence of PRMT5-MEP50 (Q9BQA1 whole entry partner): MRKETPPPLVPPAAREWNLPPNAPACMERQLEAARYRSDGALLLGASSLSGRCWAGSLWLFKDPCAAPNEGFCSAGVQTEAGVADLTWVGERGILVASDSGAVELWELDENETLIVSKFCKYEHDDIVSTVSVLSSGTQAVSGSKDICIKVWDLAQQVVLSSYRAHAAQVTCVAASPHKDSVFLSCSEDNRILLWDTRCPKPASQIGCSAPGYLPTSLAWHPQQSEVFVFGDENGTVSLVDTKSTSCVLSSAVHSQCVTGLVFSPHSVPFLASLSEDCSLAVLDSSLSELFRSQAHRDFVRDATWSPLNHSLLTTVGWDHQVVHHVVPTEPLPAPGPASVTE
Sequence of METTL3/METTL14 (Q86U44 whole entry, species assumed): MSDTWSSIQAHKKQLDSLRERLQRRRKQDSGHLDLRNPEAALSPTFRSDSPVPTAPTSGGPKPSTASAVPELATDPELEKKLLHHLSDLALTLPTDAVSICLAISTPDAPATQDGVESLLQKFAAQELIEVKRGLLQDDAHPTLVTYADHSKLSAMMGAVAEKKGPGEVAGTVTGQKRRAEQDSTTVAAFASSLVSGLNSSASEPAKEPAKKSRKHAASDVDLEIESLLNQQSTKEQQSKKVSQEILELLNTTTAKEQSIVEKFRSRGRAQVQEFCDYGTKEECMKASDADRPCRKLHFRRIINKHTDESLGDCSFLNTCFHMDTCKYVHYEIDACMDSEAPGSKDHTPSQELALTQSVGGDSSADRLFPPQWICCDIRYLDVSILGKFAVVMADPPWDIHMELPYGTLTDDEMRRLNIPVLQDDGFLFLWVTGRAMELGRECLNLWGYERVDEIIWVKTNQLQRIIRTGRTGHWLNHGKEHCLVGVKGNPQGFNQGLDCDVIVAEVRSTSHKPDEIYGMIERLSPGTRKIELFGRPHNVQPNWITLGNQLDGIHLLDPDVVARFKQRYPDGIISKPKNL
Sequence of METTL3/METTL14 (Q9HCE5 whole entry partner, species assumed): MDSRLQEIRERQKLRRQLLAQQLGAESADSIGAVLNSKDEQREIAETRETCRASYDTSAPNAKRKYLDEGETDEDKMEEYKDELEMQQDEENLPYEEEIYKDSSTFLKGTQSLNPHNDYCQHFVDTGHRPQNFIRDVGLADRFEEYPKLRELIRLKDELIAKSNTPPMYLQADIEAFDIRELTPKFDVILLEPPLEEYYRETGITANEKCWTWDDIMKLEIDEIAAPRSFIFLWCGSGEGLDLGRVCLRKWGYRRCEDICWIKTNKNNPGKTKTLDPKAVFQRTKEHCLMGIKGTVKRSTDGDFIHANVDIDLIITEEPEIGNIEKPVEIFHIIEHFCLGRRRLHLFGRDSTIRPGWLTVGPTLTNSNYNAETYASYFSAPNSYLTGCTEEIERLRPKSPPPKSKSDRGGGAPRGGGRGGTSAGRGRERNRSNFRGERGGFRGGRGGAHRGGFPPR

As for `CC1CC(NC(=O)[C@H]2O[C@@H](n3cc(-c4ccn(C)n4)c4c(N)ncnc43)[C@H](O)[C@@H]2O)CCN1` (stereo in doubt) [Compound I-212], the pIC50 is 6.00 to 7.00 against METTL3/METTL14, 6.00 to 7.00 against PRMT5-MEP50, at most 6.00 against FLT3 [1] and at most 6.00 at FLT3-ITD [2].
On to `CN1CC[C@@H](NC(=O)[C@H]2O[C@@H](n3cc(-c4ccn(C)n4)c4c(N)ncnc43)[C@H](O)[C@@H]2O)C1` [Compound I-184], for which the pIC50 is 6.00 to 7.00 on METTL3/METTL14, 7.00 to 8.00 against PRMT5-MEP50, at most 6.00 against FLT3 [1] and at most 6.00 against FLT3-ITD [2].
Consider `CC1CC(NC(=O)[C@H]2O[C@@H](n3cc(-c4ccn(C)n4)c4c(N)ncnc43)[C@H](O)[C@@H]2O)CCN1` (stereo in doubt) [Compound I-211], for which the pIC50 at METTL3/METTL14 was 6.00 to 7.00; on PRMT5-MEP50, 6.00 to 7.00; on FLT3 [1], at most 6.00; at FLT3-ITD [2], at most 6.00.
With `CN1[C@@H]2CC[C@H]1C[C@@H](NC(=O)[C@H]1O[C@@H](n3cc(-c4ccn(C)n4)c4c(N)ncnc43)[C@H](O)[C@@H]1O)C2` [Compound I-187], the pIC50 is 6.00 to 7.00 on METTL3/METTL14, 7.00 to 8.00 against PRMT5-MEP50, at most 6.00 against FLT3 [1] and at most 6.00 on FLT3-ITD [2].
Regarding `CN1CCC(NC(=O)[C@H]2O[C@@H](n3cc(-c4ccn(C)n4)c4c(N)ncnc43)[C@H](O)[C@@H]2O)CC1=O` (stereo partly drawn) [Compound I-186], the pIC50 on METTL3/METTL14, against PRMT5-MEP50, against FLT3 [1] and against FLT3-ITD [2] was at most 6.00 each time.
Regarding `CN1CCC(N(CCCO)C(=O)[C@H]2O[C@@H](n3cc(-c4ccn(C)n4)c4c(N)ncnc43)[C@H](O)[C@@H]2O)CC1` [Compound I-145], the pIC50 was 6.00 to 7.00 on METTL3/METTL14, over 8.00 at PRMT5-MEP50, at most 6.00 on FLT3 [1] and at most 6.00 against FLT3-ITD [2].
Turning to `Cn1ccc(-c2cn([C@@H]3O[C@H](C(=O)N[C@H]4CCc5nc(N)sc5C4)[C@@H](O)[C@H]3O)c3ncnc(N)c23)n1` [Compound I-197], the pIC50 is 6.00 to 7.00 against METTL3/METTL14, at most 6.00 against PRMT5-MEP50, at most 6.00 at FLT3 [3] and at most 6.00 at FLT3-ITD [4].
`Cn1ccc(-c2cn([C@@H]3O[C@H](C(=O)N[C@@H]4CCC(=O)NC4)[C@@H](O)[C@H]3O)c3ncnc(N)c23)n1` [Compound I-180]: the pIC50 against METTL3/METTL14, against PRMT5-MEP50, at FLT3 [3] and at FLT3-ITD [4] was at most 6.00 each time.
As for `CC(=O)N1CCC(NC(=O)[C@H]2O[C@@H](n3cc(-c4ccn(C)n4)c4c(N)ncnc43)[C@H](O)[C@@H]2O)CC1` [Compound I-37], the pIC50 at METTL3/METTL14, at PRMT5-MEP50, at FLT3 [3] and at FLT3-ITD [4] was at most 6.00 each time.
Take `CCNc1cc(CNC(=O)[C@H]2O[C@@H](n3cc(-c4ccn(C)n4)c4c(N)ncnc43)[C@H](O)[C@@H]2O)ccn1` [Compound I-226]: the pIC50 against METTL3/METTL14 is 6.00 to 7.00; against PRMT5-MEP50 it was 6.00 to 7.00; at FLT3 [3] it was at most 6.00; at FLT3-ITD [4], at most 6.00.
Regarding `CCN(CC)C(=O)[C@H]1O[C@@H](n2cc(-c3ccn(C)n3)c3c(N)ncnc32)[C@H](O)[C@@H]1O` [Compound I-150], the pIC50 against METTL3/METTL14 was at most 6.00; at PRMT5-MEP50 it was 6.00 to 7.00; at FLT3 [3], at most 6.00; on FLT3-ITD [4], at most 6.00.
Turning to `Cn1ccc(-c2cn([C@@H]3O[C@H](C(=O)NCCCN4CCCC4)[C@@H](O)[C@H]3O)c3ncnc(N)c23)n1` [Compound I-181], the pIC50 against METTL3/METTL14 is at most 6.00; against PRMT5-MEP50 it was 7.00 to 8.00; on FLT3 [3], at most 6.00; on FLT3-ITD [4], at most 6.00.
For `Cn1ccc(-c2cn([C@@H]3O[C@H](C(=O)N4CCNCC4)[C@@H](O)[C@H]3O)c3ncnc(N)c23)n1` [Compound I-176], the pIC50 was 6.00 to 7.00 on METTL3/METTL14, 6.00 to 7.00 on PRMT5-MEP50, at most 6.00 at FLT3 [3] and at most 6.00 on FLT3-ITD [4].
As to `Cn1ccc(-c2cn([C@@H]3O[C@H](C(=O)Nc4ccc5ccc(N6CCC6)nc5c4)[C@@H](O)[C@@H]3F)c3ncnc(N)c23)n1` [Compound I-33, (2S,3R,4S,5R)-5-[4-amino-5-(1-methyl-1H-pyrazol-3-yl)-7H-pyrrolo[2,3-d]pyrimidin-7-yl]-N-[2-(azetidin-1-yl)quinolin-7-yl]-4-fluoro-3-hydroxyoxolane-2-carboxamide], the pIC50 against METTL3/METTL14 was over 8.00; at PRMT5-MEP50, at most 6.00; on FLT3 [3], at most 6.00; on FLT3-ITD [4], at most 6.00.
For `CCNc1ccnc(NC(=O)[C@H]2O[C@@H](n3cc(-c4ccn(C)n4)c4c(N)ncnc43)[C@H](O)[C@@H]2O)n1` [Compound I-36], the pIC50 on METTL3/METTL14 is at most 6.00; at PRMT5-MEP50, 6.00 to 7.00; at FLT3 [3] it was at most 6.00; at FLT3-ITD [4], at most 6.00.

As a reminder, the pIC50 is the IC50 on a negative log10 scale, so that one unit is a factor of ten.
